Measured values published in patent US10350213B2 (AI Therapeutics, Inc., priority 2015, dated 2019).
Like-named read-outs stand apart in the source and are kept apart here.

How the values were obtained:
[1] = test system: WSU-DLCL2 (Human Diffuse Large B Cell Lymphoma -GCB); test: CellTiterGlo cell viability assay; assay type: cell-based
[2] = test system: SW780 (Human Bladder carcinoma (GATOR−/−)); test: CellTiterGlo cell viability assay; assay type: cell-based
[3] = test system: CAPAN2 (Human pancreatic cancer); test: CellTiterGlo cell viability assay; assay type: cell-based; conditions: Capan-2
[4] = test system: AsPC1 (Human pancreatic cancer); test: CellTiterGlo cell viability assay; assay type: cell-based
[5] = test system: K562 (Human myelogenous leukemia); test: CellTiterGlo cell viability assay; assay type: cell-based
TOV-21G (Human ovarian) = test: CellTiterGlo cell viability assay; assay type: cell-based; conditions: TOV21G
[6] = test system: RPMI-8226 (Human plasmacytoma); test: CellTiterGlo cell viability assay; assay type: cell-based
[7] = test system: SW1088 (Human neuroblastoma); test: CellTiterGlo cell viability assay; assay type: cell-based
[8] = test system: M0591K (Human neuroblastoma); test: CellTiterGlo cell viability assay; assay type: cell-based
[9] = test system: NCI-H1781 (Human bronchioalveolar); test: CellTiterGlo cell viability assay; assay type: cell-based
NHL cell lines = test: 7 day cell viability assay, NHL cell lines; assay type: cell-based; conditions: 7 day assay; for IC50: 168 h
From the text: This is exemplified in FIG. 2A for the HCT116 colorectal carcinoma cells. […] And all NHL subtypes were sensitive in this assay, including mantle, follicular, Burkitt's, DLBCL-ABC, DLBCL-GCB, and double-hit DLBCL.

[10] = test system: SUDHL-6 human DLBCL cancer xenograft; test: Subcutaneous SUDHL-6 human DLBCL cancer xenograft model; assay type: in vivo, NOD-SCID mice
Procedure: The tumor cells were sub-cultured twice weekly and harvested during exponential growth for tumor inoculation. NOD-SCID mice were γ-irradiated 24 hrs before inoculation. Each mouse was inoculated subcutaneously in the right flank with SU-DHL-6 tumor cells (5×10^6) in 0.1 ml of PBS with Matrigel (1:1). The tumors were then grown to a mean size of approximately 80-120 mm^3 and the mice were then split into 5 groups and treated as detailed in the Table 5.
Tumor size was measured twice a week in two dimensions using a caliper, and the volume is expressed in mm^3 using the formula: V=0.5 a×b^2 where a and b are the long and short diameters of the tumor, respectively.
Each mouse was inoculated subcutaneously in the right flank with SU-DHL-6 tumor cells (5×10^6) in 0.1 ml of PBS with Matrigel (1:1). The tumors were then grown to a mean size of approximately 80-120 mm^3 and the mice were then split into 6 groups and treated as detailed in the Table 6.

PIKfyve = target: T1, PIKfyve (Homo sapiens, UniProt Q9Y2I7); test: Chemical capture mass spectrometry (CCMS); assay type: binding; conditions: apilimod as competitor ligand
T1 construct: whole cell lysate prepared from human neuroglioma cells; endogenous in cells; host or cells: human neuroglioma cells (whole cell lysate)
T1 sequence (Q9Y2I7 whole entry): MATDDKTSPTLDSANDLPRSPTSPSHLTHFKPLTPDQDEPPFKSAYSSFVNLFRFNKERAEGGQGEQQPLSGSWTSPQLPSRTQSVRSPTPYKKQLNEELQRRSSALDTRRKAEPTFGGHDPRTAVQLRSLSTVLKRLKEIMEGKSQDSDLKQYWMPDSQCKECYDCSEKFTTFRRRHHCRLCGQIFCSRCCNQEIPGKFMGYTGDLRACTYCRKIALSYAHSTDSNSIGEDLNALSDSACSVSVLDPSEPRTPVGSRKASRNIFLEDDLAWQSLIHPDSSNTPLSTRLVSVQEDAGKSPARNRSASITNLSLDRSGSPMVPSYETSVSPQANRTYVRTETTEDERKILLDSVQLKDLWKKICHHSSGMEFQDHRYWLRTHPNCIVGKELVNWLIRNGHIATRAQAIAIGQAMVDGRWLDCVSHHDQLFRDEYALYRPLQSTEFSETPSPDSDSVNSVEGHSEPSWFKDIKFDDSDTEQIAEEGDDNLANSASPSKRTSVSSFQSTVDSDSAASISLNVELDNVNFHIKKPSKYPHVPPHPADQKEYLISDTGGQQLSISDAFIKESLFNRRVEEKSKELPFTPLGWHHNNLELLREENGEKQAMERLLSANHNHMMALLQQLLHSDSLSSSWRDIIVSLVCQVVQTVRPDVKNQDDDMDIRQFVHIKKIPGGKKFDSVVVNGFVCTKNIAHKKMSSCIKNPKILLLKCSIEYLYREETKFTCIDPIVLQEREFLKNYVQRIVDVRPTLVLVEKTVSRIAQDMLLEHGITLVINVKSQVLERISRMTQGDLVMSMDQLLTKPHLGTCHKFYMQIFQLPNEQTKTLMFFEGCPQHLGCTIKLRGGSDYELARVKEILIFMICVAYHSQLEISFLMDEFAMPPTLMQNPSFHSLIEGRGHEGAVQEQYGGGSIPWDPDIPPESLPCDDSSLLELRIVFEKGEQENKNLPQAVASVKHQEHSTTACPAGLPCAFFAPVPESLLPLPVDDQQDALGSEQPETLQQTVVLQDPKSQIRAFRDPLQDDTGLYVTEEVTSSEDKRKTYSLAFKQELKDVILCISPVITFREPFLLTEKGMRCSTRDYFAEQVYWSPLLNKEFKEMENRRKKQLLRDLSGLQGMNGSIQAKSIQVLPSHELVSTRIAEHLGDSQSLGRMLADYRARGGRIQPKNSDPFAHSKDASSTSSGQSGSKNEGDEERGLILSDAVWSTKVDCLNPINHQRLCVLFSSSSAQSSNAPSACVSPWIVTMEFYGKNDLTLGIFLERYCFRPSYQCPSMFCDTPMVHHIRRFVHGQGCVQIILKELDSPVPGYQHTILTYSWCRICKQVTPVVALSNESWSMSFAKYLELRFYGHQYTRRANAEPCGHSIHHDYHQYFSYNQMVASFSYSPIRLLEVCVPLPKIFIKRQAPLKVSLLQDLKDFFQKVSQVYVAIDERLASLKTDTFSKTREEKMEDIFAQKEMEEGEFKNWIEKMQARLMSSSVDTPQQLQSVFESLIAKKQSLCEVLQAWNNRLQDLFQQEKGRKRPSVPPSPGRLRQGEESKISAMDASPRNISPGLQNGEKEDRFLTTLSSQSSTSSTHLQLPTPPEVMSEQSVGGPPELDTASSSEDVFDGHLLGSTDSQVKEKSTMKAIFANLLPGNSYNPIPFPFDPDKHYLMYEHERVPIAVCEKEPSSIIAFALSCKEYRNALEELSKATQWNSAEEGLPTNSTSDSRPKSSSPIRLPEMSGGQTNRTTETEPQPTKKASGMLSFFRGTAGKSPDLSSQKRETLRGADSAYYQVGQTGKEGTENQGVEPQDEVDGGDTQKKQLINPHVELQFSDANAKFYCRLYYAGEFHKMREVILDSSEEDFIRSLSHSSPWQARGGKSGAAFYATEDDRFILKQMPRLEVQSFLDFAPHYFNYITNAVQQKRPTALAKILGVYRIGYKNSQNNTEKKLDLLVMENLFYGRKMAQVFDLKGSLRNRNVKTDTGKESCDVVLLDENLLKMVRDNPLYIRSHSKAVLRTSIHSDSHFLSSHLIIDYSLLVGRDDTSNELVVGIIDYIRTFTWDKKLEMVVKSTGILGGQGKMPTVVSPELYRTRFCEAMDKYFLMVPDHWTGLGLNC
Procedure: (§1) This work was performed at Caprotec Bioanalytics GmbH, Berlin Germany. See Michaelis et al., J. Med. Chem., 55 3934-44 (2012) and references cited therein. […] Capture conditions were optimized in whole cell lysate, e.g. minimization of non-specific interactions of the proteins with capture compounds, concentration of reagents and proteins to obtain maximum binding of proteins and capture compounds, etc. […] These specific binders were further subjected to stringent data analysis criteria to determine specificity after unbiased data evaluation. Specific protein binders were ranked according to their fold change (FC) values in the capture experiments.

Vac14 = target: T2, Vac14 (Homo sapiens, UniProt Q08AM6); test: Chemical capture mass spectrometry (CCMS); assay type: binding; conditions: apilimod as competitor ligand
T2 construct: whole cell lysate prepared from human neuroglioma cells; endogenous in cells; host or cells: human neuroglioma cells (whole cell lysate)
T2 sequence (Q08AM6 whole entry): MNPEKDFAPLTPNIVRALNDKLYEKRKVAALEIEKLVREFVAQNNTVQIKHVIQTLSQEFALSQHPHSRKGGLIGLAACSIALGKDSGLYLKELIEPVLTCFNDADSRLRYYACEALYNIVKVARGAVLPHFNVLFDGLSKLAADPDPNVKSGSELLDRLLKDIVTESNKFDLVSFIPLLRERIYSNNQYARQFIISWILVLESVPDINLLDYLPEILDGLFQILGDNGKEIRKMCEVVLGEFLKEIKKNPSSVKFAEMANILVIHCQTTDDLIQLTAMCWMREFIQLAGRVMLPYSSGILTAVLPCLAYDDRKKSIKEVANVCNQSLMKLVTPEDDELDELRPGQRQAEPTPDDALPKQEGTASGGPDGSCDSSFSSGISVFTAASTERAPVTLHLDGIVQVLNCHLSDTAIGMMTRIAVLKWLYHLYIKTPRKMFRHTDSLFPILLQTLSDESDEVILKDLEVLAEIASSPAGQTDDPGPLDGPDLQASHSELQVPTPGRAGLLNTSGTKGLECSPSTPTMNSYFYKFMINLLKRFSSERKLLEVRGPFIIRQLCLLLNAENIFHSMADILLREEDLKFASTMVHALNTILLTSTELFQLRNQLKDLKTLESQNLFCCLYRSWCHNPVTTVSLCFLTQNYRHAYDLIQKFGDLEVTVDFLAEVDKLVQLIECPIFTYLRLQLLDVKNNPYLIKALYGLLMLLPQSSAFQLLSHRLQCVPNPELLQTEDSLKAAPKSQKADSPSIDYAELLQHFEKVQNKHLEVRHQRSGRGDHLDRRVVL
T2 sequence (Q9Y2I7 2-2098 partner): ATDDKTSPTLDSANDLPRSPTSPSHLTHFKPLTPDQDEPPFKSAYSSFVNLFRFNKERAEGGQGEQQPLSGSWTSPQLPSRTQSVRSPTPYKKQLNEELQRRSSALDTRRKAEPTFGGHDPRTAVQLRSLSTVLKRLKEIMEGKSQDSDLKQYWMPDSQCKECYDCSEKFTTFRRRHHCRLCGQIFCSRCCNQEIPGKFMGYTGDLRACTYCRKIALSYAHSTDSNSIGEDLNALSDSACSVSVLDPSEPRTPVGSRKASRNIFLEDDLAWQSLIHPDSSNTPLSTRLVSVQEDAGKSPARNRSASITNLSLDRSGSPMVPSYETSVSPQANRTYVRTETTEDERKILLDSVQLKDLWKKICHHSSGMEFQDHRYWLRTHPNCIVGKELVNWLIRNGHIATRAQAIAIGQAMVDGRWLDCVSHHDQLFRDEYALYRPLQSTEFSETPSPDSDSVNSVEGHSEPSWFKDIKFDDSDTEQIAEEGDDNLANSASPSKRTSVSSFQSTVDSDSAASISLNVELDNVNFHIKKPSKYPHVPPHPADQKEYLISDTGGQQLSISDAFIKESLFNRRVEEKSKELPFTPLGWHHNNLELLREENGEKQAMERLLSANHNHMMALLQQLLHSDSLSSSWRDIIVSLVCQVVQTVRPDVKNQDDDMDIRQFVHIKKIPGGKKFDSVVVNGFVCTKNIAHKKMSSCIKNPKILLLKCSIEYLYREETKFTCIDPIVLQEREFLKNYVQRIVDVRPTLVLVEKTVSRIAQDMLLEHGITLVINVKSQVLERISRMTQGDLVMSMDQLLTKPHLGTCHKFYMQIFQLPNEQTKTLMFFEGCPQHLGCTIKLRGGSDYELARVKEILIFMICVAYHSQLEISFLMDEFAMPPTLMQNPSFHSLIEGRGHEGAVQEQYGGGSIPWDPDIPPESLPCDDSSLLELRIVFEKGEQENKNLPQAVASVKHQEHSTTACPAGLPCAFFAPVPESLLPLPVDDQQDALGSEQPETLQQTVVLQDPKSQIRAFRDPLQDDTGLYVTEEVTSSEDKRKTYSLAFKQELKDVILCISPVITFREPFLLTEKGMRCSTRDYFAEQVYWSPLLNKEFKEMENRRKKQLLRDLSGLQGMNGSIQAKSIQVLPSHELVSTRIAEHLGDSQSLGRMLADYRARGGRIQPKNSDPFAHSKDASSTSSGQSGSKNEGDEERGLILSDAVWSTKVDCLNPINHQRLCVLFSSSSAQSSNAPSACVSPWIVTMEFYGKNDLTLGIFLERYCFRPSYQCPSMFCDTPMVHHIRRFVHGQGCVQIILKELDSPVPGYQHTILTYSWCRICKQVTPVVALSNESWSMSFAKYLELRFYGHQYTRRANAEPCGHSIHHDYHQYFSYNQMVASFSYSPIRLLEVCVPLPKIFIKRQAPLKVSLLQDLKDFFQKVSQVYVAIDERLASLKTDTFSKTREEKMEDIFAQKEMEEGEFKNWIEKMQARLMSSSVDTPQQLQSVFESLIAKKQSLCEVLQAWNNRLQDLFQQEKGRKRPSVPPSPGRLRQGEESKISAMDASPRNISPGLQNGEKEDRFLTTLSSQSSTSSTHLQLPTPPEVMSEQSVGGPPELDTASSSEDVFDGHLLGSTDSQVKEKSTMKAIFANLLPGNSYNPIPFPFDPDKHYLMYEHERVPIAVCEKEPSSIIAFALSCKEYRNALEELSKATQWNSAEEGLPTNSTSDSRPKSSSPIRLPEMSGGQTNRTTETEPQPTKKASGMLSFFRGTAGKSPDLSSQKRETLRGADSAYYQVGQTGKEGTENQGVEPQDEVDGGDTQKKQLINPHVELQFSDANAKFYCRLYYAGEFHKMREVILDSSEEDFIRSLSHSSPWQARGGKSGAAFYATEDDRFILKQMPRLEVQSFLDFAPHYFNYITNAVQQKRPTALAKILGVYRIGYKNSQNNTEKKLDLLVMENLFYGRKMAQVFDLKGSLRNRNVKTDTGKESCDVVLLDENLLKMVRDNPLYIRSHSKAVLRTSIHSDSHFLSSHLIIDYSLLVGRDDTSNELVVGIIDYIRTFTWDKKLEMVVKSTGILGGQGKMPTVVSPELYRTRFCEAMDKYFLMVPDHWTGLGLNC
Procedure: as §1

H4 neuroglioma cells = test: Endolysosomal (vacuole) phenotype, DIC images; assay type: cell-based, Human; conditions: 100 nM apilimod, 24 hrs
From the text: PIKfyve produces the lipid products PI(3,5)P2 and PI5P, which in turn serve to establish membrane identity and control endolysosomal dynamics. Studies have shown that the PI(3,5)P2 depletion arising from inhibition of PIKfyve produces a swollen endolysosome phenotype. […] This phenotype was reversible, and cancer cell lines reverted to normal appearance within 3-4 days after drug removal.

[11] = Phase 1 dose-escalation (QD/BID) study in normal healthy volunteers; assay type: in vivo, human; conditions: for Cmax: oral, human plasma, mean
[12] = test system: peripheral blood mononuclear cells; test: Vacuole formation in peripheral blood mononuclear cells; assay type: cell-based; conditions: treatment for 24 h

Cc1cccc(/C=N/Nc2cc(N3CCOCC3)nc(OCCc3ccccn3)n2)c1 [apilimod]
IC50 ([1]; Homo sapiens, WSUDLCL2, 72 h, three-day assay, read-out: IC50 (nM) WSU-DLCL2): 54 nM | IC50 ([1]; WSUDLCL2, Human DLBCL-GCB, read-out: IC50): 160 nM | IC50 [2]: 1000 nM | IC50 [3]: > 2000 nM | IC50 [4]: > 2000 nM | IC50 [5]: > 5000 nM | IC50 (TOV-21G (Human ovarian)): 7000 nM | IC50 [6]: > 10000 nM | IC50 [7]: > 10000 nM | IC50 [8]: > 10000 nM | IC50 [9]: > 20000 nM | share of NHL cell lines sensitive to apilimod (NHL cell lines; 32 NHL cell lines tested): 72% | IC50 (NHL cell lines; different NHL subtypes, read-out: IC50): < 125 nM | IC50 (NHL cell lines; sensitive NHL cell lines, read-out: average IC50): 69 nM | tumor growth inhibition ([10]; 75 mg/kg apilimod free base p.o. QD×5, 2 days off, QD×5, 31 days): 57% | effect on body weight ([10]; all apilimod treatment arms, i.v. and p.o., 29 days): negligible effect on body weight | reduction of tumor size ([10]; apilimod dimesylate 67.5 mg/kg (47 mg/kg free base) i.v. QD×5, 2 days off, QD×5, 29 days): 58% | reduction of tumor growth ([10]; apilimod free base p.o. 150 mg/kg single dose (QD×5, 2 days off), 29 days): 64% | reduction of tumor growth ([10]; apilimod free base p.o. 150 mg/kg split dose (75 mg/kg BID×5, 2 days off, BID×5), 29 days): 68% | log2 (FC) (PIKfyve; capture compound 0.1 μM, human neuroglioma whole cell lysate): 6.3 | log2 (FC) (PIKfyve; capture compound 0.5 μM): 6.2 | log2 (FC) (PIKfyve; capture compound 1.0 μM): 4.1 | log2 (FC) (PIKfyve; capture compound 2.0 μM): 4.3 | log2 (FC) (Vac14; capture compound 0.1 μM): 6.2 | log2 (FC) (Vac14; capture compound 0.5 μM): 5.6 | log2 (FC) (Vac14; capture compound 1.0 μM): Inf. | log2 (FC) (Vac14; capture compound 2.0 μM): 3.9 | cell phenotype (H4 neuroglioma cells): striking swollen endolysosomal (vacuole) phenotype | share of the 24 hr period with plasma concentrations above 50 ng/ml ([11]; 50 ng/ml equal to 125 nM, 105 mg BID): ~50% | safety profile ([11]; 105 mg BID, humans): tolerable safety profile | Cmax ([11]; Treatment E: 70 mg ×2, total 140 mg, read-out: PM Cmax): 110 ng/mL | Cmax ([11]; human, plasma, po, 7 mg, Treatment A: 7 mg once, total 7 mg, read-out: AM Cmax): 10.8 ng/mL | Cmax ([11]; human, plasma, po, 7 mg, Treatment B: 7 mg ×2, total 14 mg, read-out: AM Cmax): 12.7 ng/mL | Cmax ([11]; human, plasma, po, 7 mg, Treatment B: 7 mg ×2, total 14 mg, read-out: PM Cmax): 8.18 ng/mL | Cmax ([11]; human, plasma, po, 14 mg, Treatment C: 14 mg ×2, total 28 mg, read-out: AM Cmax): 18.2 ng/mL | Cmax ([11]; human, plasma, po, 14 mg, Treatment C: 14 mg ×2, total 28 mg, read-out: PM Cmax): 10.7 ng/mL | Cmax ([11]; human, plasma, po, 35 mg, Treatment D: 35 mg ×2, total 70 mg, read-out: AM Cmax): 71.8 ng/mL | Cmax ([11]; human, plasma, po, 35 mg, Treatment D: 35 mg ×2, total 70 mg, read-out: PM Cmax): 63 ng/mL | Cmax ([11]; human, plasma, po, 70 mg, Treatment E: 70 mg ×2, total 140 mg, read-out: AM Cmax): 145 ng/mL | Cmax ([11]; human, plasma, po, 105 mg, Treatment F: 105 mg ×2, total 210 mg, read-out: AM Cmax): 192 ng/mL | Cmax ([11]; human, plasma, po, 105 mg, Treatment F: 105 mg ×2, total 210 mg, read-out: PM Cmax): 149 ng/mL | vacuole formation [12]: induces vacuole formation
